From patent US20260184687A1, “DIHYDROINDENE DERIVATIVES AS MALT1 INHIBITORS” (C4X Discovery Limited, priority 2022, published 2026)

Each compound was assayed against MALT1-GS-Ub (6-His-hMALT-1 residues 339-715 fused to ubiquitin) (Homo sapiens, UniProt Q9UDY8) (assay: biochemical). Conditions: not given.
Chain of MALT1-GS-Ub (6-His-hMALT-1 residues 339-715 fused to ubiquitin) (Q9UDY8 with tags, fused parts or gaps limits assumed): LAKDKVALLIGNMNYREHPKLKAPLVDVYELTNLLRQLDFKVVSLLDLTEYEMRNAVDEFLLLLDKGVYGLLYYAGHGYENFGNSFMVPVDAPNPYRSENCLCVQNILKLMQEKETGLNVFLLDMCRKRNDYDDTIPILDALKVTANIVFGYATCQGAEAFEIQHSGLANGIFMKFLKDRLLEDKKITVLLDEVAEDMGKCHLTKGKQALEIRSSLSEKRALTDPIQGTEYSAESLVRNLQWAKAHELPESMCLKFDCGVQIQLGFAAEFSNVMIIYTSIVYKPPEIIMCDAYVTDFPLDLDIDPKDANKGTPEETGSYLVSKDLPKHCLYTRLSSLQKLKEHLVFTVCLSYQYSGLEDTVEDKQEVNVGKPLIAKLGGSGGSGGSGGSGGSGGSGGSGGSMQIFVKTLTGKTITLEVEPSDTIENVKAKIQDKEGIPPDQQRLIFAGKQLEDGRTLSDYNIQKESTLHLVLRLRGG

IC50 [nM]	Structure (SMILES)
330	CN(C(=O)C1CCOCC1)[C@@H](c1ccc(NC2Cc3ccccc3C2(C)C)cc1)C(F)(F)F (single isomer, unassigned) [Example 18]
170	CN(C(=O)C1CCOCC1)[C@@H](c1ccc(NC2Cc3ccccc3C2(C)C)cc1)C(F)(F)F (single isomer, unassigned) [Example 19]
210	CN(C(=O)c1cc[nH]c(=O)c1)[C@@H](c1ccc(NC2Cc3ccccc3C2(C)C)cc1)C(F)(F)F (single isomer, unassigned) [Example 20]
200	CN(C(=O)c1cc[nH]c(=O)c1)[C@@H](c1ccc(NC2Cc3ccccc3C2(C)C)cc1)C(F)(F)F (single isomer, unassigned) [Example 21]
290	CN(C(=O)N1CCC(O)CC1)[C@@H](c1ccc(NC2Cc3ccccc3C2(C)C)cc1)C(F)(F)F (single isomer, unassigned) [Example 22]
390	CN(C(=O)N1CCC(O)CC1)[C@@H](c1ccc(NC2Cc3ccccc3C2(C)C)cc1)C(F)(F)F (single isomer, unassigned) [Example 23]
160	CC(=O)NCCC(=O)N(C)[C@@H](c1ccc(NC2Cc3ccccc3C2(C)C)cc1)C(F)(F)F (single isomer, unassigned) [Example 24]
360	CN(C(=O)c1cocn1)[C@@H](c1ccc(NC2Cc3ccccc3C2(C)C)cc1)C(F)(F)F (single isomer, unassigned) [Example 26]
190	CN(C(=O)c1cocn1)[C@@H](c1ccc(NC2Cc3ccccc3C2(C)C)cc1)C(F)(F)F (single isomer, unassigned) [Example 27]
290	COCC(=O)N(C)[C@@H](c1ccc(NC2Cc3ccccc3C2(C)C)cc1)C(F)(F)F (single isomer, unassigned) [Example 28]
160	COCC(=O)N(C)[C@@H](c1ccc(NC2Cc3ccccc3C2(C)C)cc1)C(F)(F)F (single isomer, unassigned) [Example 29]
130	CN(C(=O)CO)[C@@H](c1ccc(NC2Cc3ccccc3C2(C)C)cc1)C(F)(F)F (single isomer, unassigned) [Example 31]
200	COCCC(=O)N(C)[C@@H](c1ccc(NC2Cc3ccccc3C2(C)C)cc1)C(F)(F)F (single isomer, unassigned) [Example 32]
360	COCCC(=O)N(C)[C@@H](c1ccc(NC2Cc3ccccc3C2(C)C)cc1)C(F)(F)F (single isomer, unassigned) [Example 33]
170	CN(C(=O)CCO)[C@@H](c1ccc(NC2Cc3ccccc3C2(C)C)cc1)C(F)(F)F (single isomer, unassigned) [Example 34]
290	CN(C(=O)CCO)[C@@H](c1ccc(NC2Cc3ccccc3C2(C)C)cc1)C(F)(F)F (single isomer, unassigned) [Example 35]
380	CN(C(=O)C1CCS(=O)(=O)CC1)[C@@H](c1ccc(NC2Cc3ccccc3C2(C)C)nc1)C(F)(F)F (single isomer, unassigned) [Example 36]
240	CC(=O)NCC(=O)N(C)[C@@H](c1ccc(NC2Cc3ccccc3C2(C)C)cc1)C(F)(F)F (single isomer, unassigned) [Example 39]

Each compound was assayed on IL-2 release from stimulated Jurkat cells (assay: Human IL-2 Release Phenotypic Assay (Assay 3)). Conditions: Homo sapiens, Jurkat, 48 h, Jurkat cells (clone E6-1), 200 ng/mL PMA + 300 ng/mL ionomycin, IL-2 by ELISA.
Type: cell-based
In short: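 IC50 values were fitted by 4-parameter non-linear regression to IL-2 release from Jurkat E6-1 cells. Those cells were stimulated for 48 h with PMA (200 ng/mL) plus ionomycin (300 ng/mL) after a 30-min compound pre-incubation at half-log doses in 0.5% DMSO. Cells had been plated at 50 000/well overnight at 37° C.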

IC50 [nM]	Structure (SMILES)
510	CN(C(=O)c1cc[nH]c(=O)c1)[C@@H](c1ccc(NC2Cc3ccccc3C2(C)C)cc1)C(F)(F)F (single isomer, unassigned) [Example 20]
1730	CN(C(=O)N1CCC(O)CC1)[C@@H](c1ccc(NC2Cc3ccccc3C2(C)C)cc1)C(F)(F)F (single isomer, unassigned) [Example 22]
1190	CN(C(=O)CO)[C@@H](c1ccc(NC2Cc3ccccc3C2(C)C)cc1)C(F)(F)F (single isomer, unassigned) [Example 31]
4980	CN(C(=O)CCO)[C@@H](c1ccc(NC2Cc3ccccc3C2(C)C)cc1)C(F)(F)F (single isomer, unassigned) [Example 34]

Same assay, conditions: Jurkat cells (clone E6-1), 200 ng/mL PMA + 300 ng/mL ionomycin, 48 hours, IL-2 by ELISA

IC50 [nM]	Structure (SMILES)
520	CN(C(=O)C1CCOCC1)[C@@H](c1ccc(NC2Cc3ccccc3C2(C)C)cc1)C(F)(F)F (single isomer, unassigned) [Example 18]
110	CN(C(=O)C1CCOCC1)[C@@H](c1ccc(NC2Cc3ccccc3C2(C)C)cc1)C(F)(F)F (single isomer, unassigned) [Example 19]
260	CN(C(=O)c1cc[nH]c(=O)c1)[C@@H](c1ccc(NC2Cc3ccccc3C2(C)C)cc1)C(F)(F)F (single isomer, unassigned) [Example 21]
1080	CN(C(=O)N1CCC(O)CC1)[C@@H](c1ccc(NC2Cc3ccccc3C2(C)C)cc1)C(F)(F)F (single isomer, unassigned) [Example 23]
870	CC(=O)NCCC(=O)N(C)[C@@H](c1ccc(NC2Cc3ccccc3C2(C)C)cc1)C(F)(F)F (single isomer, unassigned) [Example 24]
910	CN(C(=O)c1cocn1)[C@@H](c1ccc(NC2Cc3ccccc3C2(C)C)cc1)C(F)(F)F (single isomer, unassigned) [Example 26]
400	CN(C(=O)c1cocn1)[C@@H](c1ccc(NC2Cc3ccccc3C2(C)C)cc1)C(F)(F)F (single isomer, unassigned) [Example 27]
2610	COCC(=O)N(C)[C@@H](c1ccc(NC2Cc3ccccc3C2(C)C)cc1)C(F)(F)F (single isomer, unassigned) [Example 28]
690	COCC(=O)N(C)[C@@H](c1ccc(NC2Cc3ccccc3C2(C)C)cc1)C(F)(F)F (single isomer, unassigned) [Example 29]
5680	COCCC(=O)N(C)[C@@H](c1ccc(NC2Cc3ccccc3C2(C)C)cc1)C(F)(F)F (single isomer, unassigned) [Example 32]
2480	COCCC(=O)N(C)[C@@H](c1ccc(NC2Cc3ccccc3C2(C)C)cc1)C(F)(F)F (single isomer, unassigned) [Example 33]
3760	CN(C(=O)CCO)[C@@H](c1ccc(NC2Cc3ccccc3C2(C)C)cc1)C(F)(F)F (single isomer, unassigned) [Example 35]
1160	CN(C(=O)C1CCS(=O)(=O)CC1)[C@@H](c1ccc(NC2Cc3ccccc3C2(C)C)nc1)C(F)(F)F (single isomer, unassigned) [Example 36]
3590	CC(=O)NCC(=O)N(C)[C@@H](c1ccc(NC2Cc3ccccc3C2(C)C)cc1)C(F)(F)F (single isomer, unassigned) [Example 39]

Each compound was assayed against T1, FL hMALT1 enzyme (Homo sapiens, UniProt Q9UDY8) (assay: biochemical). Conditions: not given.
T1 sequence (Q9UDY8 1-824): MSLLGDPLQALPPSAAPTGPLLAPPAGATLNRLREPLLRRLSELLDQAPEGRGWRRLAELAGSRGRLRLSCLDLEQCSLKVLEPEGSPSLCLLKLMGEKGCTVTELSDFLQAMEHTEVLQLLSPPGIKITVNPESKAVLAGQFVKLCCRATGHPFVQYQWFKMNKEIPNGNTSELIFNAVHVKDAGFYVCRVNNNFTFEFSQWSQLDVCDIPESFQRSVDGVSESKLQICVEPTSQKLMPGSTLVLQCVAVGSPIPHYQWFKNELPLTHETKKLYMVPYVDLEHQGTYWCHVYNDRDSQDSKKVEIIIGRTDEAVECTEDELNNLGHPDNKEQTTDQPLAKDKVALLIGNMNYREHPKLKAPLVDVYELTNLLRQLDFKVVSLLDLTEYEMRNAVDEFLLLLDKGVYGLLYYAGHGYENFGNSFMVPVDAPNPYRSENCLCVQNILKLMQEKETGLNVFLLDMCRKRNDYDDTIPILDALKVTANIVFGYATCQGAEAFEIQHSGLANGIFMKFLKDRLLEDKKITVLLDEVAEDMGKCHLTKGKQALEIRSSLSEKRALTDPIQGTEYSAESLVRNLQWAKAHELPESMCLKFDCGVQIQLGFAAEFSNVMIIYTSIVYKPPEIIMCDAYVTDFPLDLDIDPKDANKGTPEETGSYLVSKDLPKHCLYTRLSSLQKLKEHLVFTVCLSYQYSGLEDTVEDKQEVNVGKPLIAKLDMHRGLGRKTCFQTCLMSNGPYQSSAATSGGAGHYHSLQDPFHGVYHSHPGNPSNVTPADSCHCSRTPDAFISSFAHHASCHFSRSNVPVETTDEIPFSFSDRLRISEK

IC50 [nM]	Structure (SMILES)
120	CN(C(=O)C1CCOCC1)[C@@H](c1ccc(NC2Cc3ccccc3C2(C)C)cc1)C(F)(F)F (single isomer, unassigned) [Example 18]
30	CN(C(=O)C1CCOCC1)[C@@H](c1ccc(NC2Cc3ccccc3C2(C)C)cc1)C(F)(F)F (single isomer, unassigned) [Example 19]
240	CN(C(=O)c1cc[nH]c(=O)c1)[C@@H](c1ccc(NC2Cc3ccccc3C2(C)C)cc1)C(F)(F)F (single isomer, unassigned) [Example 20]
62	CN(C(=O)c1cc[nH]c(=O)c1)[C@@H](c1ccc(NC2Cc3ccccc3C2(C)C)cc1)C(F)(F)F (single isomer, unassigned) [Example 21]
450	CN(C(=O)N1CCC(O)CC1)[C@@H](c1ccc(NC2Cc3ccccc3C2(C)C)cc1)C(F)(F)F (single isomer, unassigned) [Example 22]
330	CN(C(=O)N1CCC(O)CC1)[C@@H](c1ccc(NC2Cc3ccccc3C2(C)C)cc1)C(F)(F)F (single isomer, unassigned) [Example 23]
89	CC(=O)NCCC(=O)N(C)[C@@H](c1ccc(NC2Cc3ccccc3C2(C)C)cc1)C(F)(F)F (single isomer, unassigned) [Example 24]
700	CN(C(=O)c1cocn1)[C@@H](c1ccc(NC2Cc3ccccc3C2(C)C)cc1)C(F)(F)F (single isomer, unassigned) [Example 26]
180	CN(C(=O)c1cocn1)[C@@H](c1ccc(NC2Cc3ccccc3C2(C)C)cc1)C(F)(F)F (single isomer, unassigned) [Example 27]
200	COCC(=O)N(C)[C@@H](c1ccc(NC2Cc3ccccc3C2(C)C)cc1)C(F)(F)F (single isomer, unassigned) [Example 28]
14	COCC(=O)N(C)[C@@H](c1ccc(NC2Cc3ccccc3C2(C)C)cc1)C(F)(F)F (single isomer, unassigned) [Example 29]
50	CN(C(=O)CO)[C@@H](c1ccc(NC2Cc3ccccc3C2(C)C)cc1)C(F)(F)F (single isomer, unassigned) [Example 31]
130	COCCC(=O)N(C)[C@@H](c1ccc(NC2Cc3ccccc3C2(C)C)cc1)C(F)(F)F (single isomer, unassigned) [Example 32]
260	COCCC(=O)N(C)[C@@H](c1ccc(NC2Cc3ccccc3C2(C)C)cc1)C(F)(F)F (single isomer, unassigned) [Example 33]
85	CN(C(=O)CCO)[C@@H](c1ccc(NC2Cc3ccccc3C2(C)C)cc1)C(F)(F)F (single isomer, unassigned) [Example 34]
27	CN(C(=O)CCO)[C@@H](c1ccc(NC2Cc3ccccc3C2(C)C)cc1)C(F)(F)F (single isomer, unassigned) [Example 35]
39	CN(C(=O)C1CCS(=O)(=O)CC1)[C@@H](c1ccc(NC2Cc3ccccc3C2(C)C)nc1)C(F)(F)F (single isomer, unassigned) [Example 36]
170	CC(=O)NCC(=O)N(C)[C@@H](c1ccc(NC2Cc3ccccc3C2(C)C)cc1)C(F)(F)F (single isomer, unassigned) [Example 39]
